In patent publication US20230126310A1 (priority 2020, published 2023):
Structures can show the parent of a compound that is named as a salt. Where two headings read alike, the source gives them in different places.

Experiments:
SARS-CoV-2 [1] = test: microbe, parasite or virus in culture; conditions: Severe acute respiratory syndrome coronavirus 2, Caco-2, 48 h; for inhibition at 10 µM: read-out: % Inh. (% Inhibition of SARS-CoV-2)
[2] = Compound cytotoxicity against CaCo-2 cells at 48 hours; type: cell-based, Human; conditions: human, CaCo-2 cells
Description: The cytotoxicity of the profiled compounds towards CaCo-2 cells at 48 hours was assessed. […] After 48 hours, cytotoxicity was evaluated using both digital phase contrast readout as described above and ATP determination (Cell titre-glo, Promega Corp).

[3] = test system: SARS-CoV-2 (BetaCov/Belgium/GHB-03021/2020); test: microbe, parasite or virus in culture; type: cell-based; conditions: for Emax: Severe acute respiratory syndrome coronavirus 2, 120 h, read-out: Maximum confluence reached (%)
SARS-CoV-2 [4] = conditions: comparative experiments, Examples 1 and 2
[5] = Table 5, further results of Examples 1 and 2, mean ± spread
[6] = comparative experiments, 48 hours

| SMILES | IC50 (SARS-CoV-2 [1]) | IC50 (SARS-CoV-2 [1]; read-out: pIC50 (converted)) | CC50 at 48 h [2, 5] | inhibition at 10 µM (SARS-CoV-2 [1]) | also measured |
| --- | --- | --- | --- | --- | --- |
| CC[C@@H]([C@H](C)O)n1ncn(-c2ccc(N3CCN(c4ccc(OC[C@@H]5CO[C@@](Cn6cncn6)(c6ccc(F)cc6F)C5)cc4)CC3)cc2)c1=O [Posaconazole] | 2.37 µM | 2.34 µM | 14.6 ± 0.67 µM |  |  |
| CCOc1ccc(/C=C2\NCCc3cc(OCC)c(OCC)cc32)cc1OCC [drotaverine] |  |  | 9 ± 0.96 µM | 93.1% |  |
| CC(=O)N1CCN(c2ccc(OCC3COC(Cn4ccnc4)(c4ccc(Cl)cc4Cl)O3)cc2)CC1 (stereo not shown) [KETOCONAZOLE] |  |  | 28.6 ± 4.97 µM | 87.1% |  |
| Cc1cccc(C)c1OCC(=O)N[C@@H](Cc1ccccc1)[C@@H](O)C[C@H](Cc1ccccc1)NC(=O)[C@H](C(C)C)N1CCCNC1=O [Lopinavir (ABT-378), Lopinavir] |  |  | 2130 ± 3590 µM | 56.6% |  |
| Cc1ccc(NC(=O)c2ccc(CN3CCN(C)CC3)cc2)cc1Nc1nc(-c2cccnc2)cs1 [Masitinib (AB1010), Masitinib] |  |  |  | 108% | Emax [3]: 57.1% |
| Nc1nc2nc[nH]c2c(=S)[nH]1 [TIOGUANINE] |  |  |  |  | % Inh (% inhibition of virus infection) (SARS-CoV-2 [4]): 99.9%; CC50 at 48 h [2, 6]: 2.21 ± 1.48 µM |
| O=C(CCCN1CCC2(CC1)C(=O)N(Cc1cccc(F)c1)CN2c1ccccc1)c1ccc(F)cc1.O=C(O)/C=C\C(=O)O [3′-fluorobenzylspiperone] |  |  |  |  | Maximum confluence reached (%) [3]: 43.04% |
| CNC(=O)c1cc(Oc2ccc(NC(=O)Nc3ccc(Cl)c(C(F)(F)F)c3)c(F)c2)ccn1 [Regorafenib (BAY 73-4506), Regorafenib] |  |  | 0.97 ± 0.6 µM | 91.5% |  |
| CO[C@H]1CC[C@H](N2C(=O)CNc3ncc(-c4ccc(C(C)(C)O)nc4)nc32)CC1 [CC-223] | 23.6 µM | 23.4 µM | 9.49 ± 2.55 µM | 104% |  |
| OC(c1cc(C(F)(F)F)nc2c(C(F)(F)F)cccc12)C1CCCCN1 (stereo not shown) [MEFLOQUINE HYDROCHLORIDE] | 28.9 µM | 28.8 µM | 33 ± 7.96 µM | 93.3% |  |
| C[C@@H](c1nc(-c2ccc(C#N)cc2)cs1)[C@](O)(Cn1cncn1)c1ccc(F)cc1F [ravuconazole] | 2 µM | 2 µM | 12.8 ± 0.84 µM | 103% |  |
| S=C(NCc1ccc2c(c1)OCO2)N1CCN(c2ncnc3c2oc2ccccc23)CC1 [Amuvatinib (MP-470), Amuvatinib] |  | 0.0302 µM | 0.06 ± 0.01 µM |  |  |
| CC[C@@H](C(=O)[C@@H](C)[C@@H](O)[C@H](C)[C@@H]1O[C@@H]([C@@H](CC)C(=O)O)CC[C@@H]1C)[C@H]1O[C@]2(C=C[C@@H](O)[C@]3(CC[C@@](C)([C@H]4CC[C@](O)(CC)[C@H](C)O4)O3)O2)[C@H](C)C[C@@H]1C [Salinomycin (Procoxacin), Salinomycin] |  |  |  | 90.2% | Emax [3]: 34.4% |
| NS(=O)(=O)OC[C@@H]1C[C@@H](n2ccc3c(N[C@H]4CCc5ccccc54)ncnc32)C[C@@H]1O [Pevonedistat hydrochloride] |  |  |  |  | % Inh (% inhibition of virus infection) (SARS-CoV-2 [4]): 75.1%; CC50 at 48 h [2, 6]: 222 ± 332 µM |
| Fc1ccc(-c2cncc(CN3CCN(c4cccc5c4OCCO5)CC3)c2)cc1 [Adoprazine] | 23.4 µM | 23.4 µM | 75.9 ± 54.2 µM | 81.4% |  |
| CN(C)C(=O)COC(=O)Cc1ccc(OC(=O)c2ccc(NC(=N)N)cc2)cc1 [Camostat Mesilate (FOY-305), Camostat Mesilate] |  |  |  |  | % Inh (% inhibition of virus infection) (SARS-CoV-2 [4]): 86.9%; CC50 at 48 h [2, 6]: > 20 µM |
| CC(C)c1cc(C(C)C)c(CC(=O)NS(=O)(=O)Oc2c(C(C)C)cccc2C(C)C)c(C(C)C)c1 [Avasimibe (CI-1011), Avasimibe] | 10.9 µM | 11 µM | 13.7 ± 6.18 µM | 91.4% |  |
| CN1CC[C@H](c2c(O)cc(O)c3c(=O)cc(-c4ccccc4Cl)oc23)[C@H](O)C1 [alvocidib] |  |  | 0.06 µM | 87.8% |  |
